# Measured values published in patent US11051515B2, “3-acyl-benzamides and their use as herbicides” (Bayer Aktiengesellschaft, priority 2017, dated 2021).
# Experiments:
# MATIN [1] = experiment: Post-emergence action against MATIN; format: in vivo, Matricaria inodora; details: post-emergence, dosage 80 g/ha, visual assessment about 3 weeks after treatment vs untreated controls
# Description: (§1) Seeds of monocotyledonous and dicotyledonous weed and crop plants are laid out in sandy loam soil in wood-fiber pots, covered with soil and cultivated in a greenhouse under good growth conditions. 2 to 3 weeks after sowing, the test plants are treated at the one-leaf stage. The compounds of the invention, formulated in the form of wettable powders (WP) or as emulsion concentrates (EC), are then sprayed onto the green parts of the plants in the form of an aqueous suspension or emulsion at a water application rate equating to […], with addition of 0.2% wetting agent. After the test plants have been left to stand in the greenhouse under optimal growth conditions for about 3 weeks, the action of the preparations is assessed visually in comparison to untreated controls (herbicidal action in percent (%): 100% activity=the plants have died, 0% activity=like control plants). […] At the same time, inventive compounds leave Gramineae crops such as barley, wheat, rye, millet/Sorghum, corn or rice virtually undamaged when applied post-emergence, even at high active ingredient dosages. In addition, some substances are also harmless to dicotyledonous crops such as soya, cotton, oilseed rape, sugar beet or potatoes. Some of the compounds according to the invention have high selectivity and are therefore suitable for controlling unwanted vegetation in agricultural crops by the post-emergence method. The data of Tables B18 to B34 below illustrate, in an exemplary manner, the […] herbicidal action of the compounds according to the invention, the herbicidal activity being stated in percent.
# STEME [2] = experiment: Post-emergence action against STEME; format: in vivo, Stellaria media; details: post-emergence, dosage 80 g/ha
# Description: as §1
# PHBPU [3] = experiment: Post-emergence action against PHBPU; format: in vivo, Pharbitis purpurea; details: post-emergence, dosage 80 g/ha
# Description: as §1
# MATIN [4] = experiment: Pre-emergence action against MATIN; format: in vivo, Matricaria inodora; details: Dosage 320 g/ha, pre-emergence
# Excerpt: (§2) Seeds of monocotyledonous and dicotyledonous weed plants and crop plants are laid out in sandy loam soil in wood-fiber pots and covered with soil. The compounds of the invention, formulated in the form of wettable powders (WP) or as emulsion concentrates (EC), are then applied to the surface of the covering soil in the form of an aqueous suspension or emulsion at a water application rate equating to […], with addition of 0.2% wetting agent. After the treatment, the pots are placed in a greenhouse and kept under good growth conditions for the trial plants. The damage to the test plants is scored visually after a test period of 3 weeks by comparison with untreated controls (herbicidal activity in percent (%): 100% activity=the plants have died, 0% activity=like control plants).
# ECHCG [5] = experiment: Post-emergence action against ECHCG; format: in vivo, Echinochloa crus-galli; details: post-emergence, dosage 80 g/ha, visual assessment about 3 weeks after treatment vs untreated controls
# Description: as §1
# VIOTR [6] = experiment: Post-emergence action against VIOTR; format: in vivo, Viola tricolor; details: post-emergence, dosage 80 g/ha
# Description: as §1
# STEME [7] = experiment: Pre-emergence action against STEME; format: in vivo, Stellaria media; details: Dosage 320 g/ha, pre-emergence
# Excerpt: as §2
# CYPES [8] = experiment: Post-emergence action against CYPES; format: in vivo, Cyperus esculentus; details: post-emergence, dosage 80 g/ha, visual assessment about 3 weeks after treatment vs untreated controls
# Description: as §1
# AMARE [9] = experiment: Post-emergence action against AMARE; format: in vivo, Amaranthus retroflexus; details: post-emergence, dosage 80 g/ha, visual assessment about 3 weeks after treatment vs untreated controls
# Description: as §1
# VERPE [10] = experiment: Pre-emergence action against VERPE; format: in vivo, Veronica persica; details: Dosage 320 g/ha, pre-emergence
# Excerpt: as §2
# ECHCG [11] = experiment: Pre-emergence action against ECHCG; format: in vivo, Echinochloa crus-galli; details: pre-emergence, dosage 320 g/ha, scored visually after 3 weeks vs untreated controls
# Excerpt: as §2
# ALOMY = experiment: Pre-emergence action against ALOMY; format: in vivo, Alopecurus myosuroides; details: dosage 320 g/ha; pre-emergence; scored visually after 3 weeks vs untreated controls; 100% = plants have died, 0% = like control plants
# Excerpt: as §2
# ABUTH [12] = experiment: Post-emergence action against ABUTH; format: in vivo, Abutilon theophrasti; details: post-emergence, dosage 80 g/ha, visual assessment about 3 weeks after treatment vs untreated controls
# Description: as §1
# AMARE [13] = experiment: Pre-emergence action against AMARE; format: in vivo, Amaranthus retroflexus; details: pre-emergence, dosage 320 g/ha, scored visually after 3 weeks vs untreated controls
# Excerpt: as §2
# ABUTH [14] = experiment: Pre-emergence action against ABUTH; format: in vivo, Abutilon theophrasti; details: pre-emergence, dosage 320 g/ha, scored visually after 3 weeks vs untreated controls
# Excerpt: as §2
# PHBPU [15] = experiment: Pre-emergence action against PHBPU; format: in vivo, Pharbitis purpurea; details: Dosage 320 g/ha, pre-emergence
# Excerpt: as §2
# POLCO = experiment: Pre-emergence action against POLCO; format: in vivo, Polygonum convolvulus; details: Dosage 320 g/ha, pre-emergence
# Excerpt: as §2
# CYPES [16] = experiment: Pre-emergence action against CYPES; format: in vivo, Cyperus esculentus; details: pre-emergence, dosage 320 g/ha, scored visually after 3 weeks vs untreated controls
# Excerpt: as §2
# SETVI [17] = experiment: Pre-emergence action against SETVI; format: in vivo, Setaria viridis; details: pre-emergence, dosage 320 g/ha, scored visually after 3 weeks vs untreated controls
# Excerpt: as §2
# VIOTR [18] = experiment: Pre-emergence action against VIOTR; format: in vivo, Viola tricolor; details: Dosage 320 g/ha, pre-emergence
# Excerpt: as §2
# VERPE [19] = experiment: Post-emergence action against VERPE; format: in vivo, Veronica persica; details: dosage 80 g/ha
# Description: as §1
# SETVI [20] = experiment: Post-emergence action against SETVI; format: in vivo, Setaria viridis; details: post-emergence, dosage 80 g/ha, visual assessment about 3 weeks after treatment vs untreated controls
# Description: as §1
# AVEFA = experiment: Pre-emergence action against AVEFA; format: in vivo, Avena fatua; details: dosage 320 g/ha, scored visually after 3 weeks vs untreated controls
# Excerpt: as §2
SMILES,Post-emergence action against MATIN (herbicidal action in percent) (MATIN [1]),Post-emergence action against STEME (STEME [2]),Post-emergence action against PHBPU (PHBPU [3]),Pre-emergence action against MATIN (MATIN [4]),Post-emergence action against ECHCG (herbicidal action in percent) (ECHCG [5]),Post-emergence action against VIOTR (VIOTR [6]),Pre-emergence action against STEME (STEME [7]),Post-emergence action against AMARE (herbicidal action in percent) (AMARE [9]),Pre-emergence action against VERPE (VERPE [10]),Pre-emergence action against ECHCG (herbicidal activity) (ECHCG [11]),Pre-emergence action against ALOMY (herbicidal activity in percent) (ALOMY),Post-emergence action against ABUTH (herbicidal action in percent) (ABUTH [12]),Pre-emergence action against AMARE (herbicidal activity) (AMARE [13]),Pre-emergence action against ABUTH (herbicidal activity) (ABUTH [14]),Pre-emergence action against PHBPU (PHBPU [15]),Pre-emergence action against CYPES (herbicidal activity) (CYPES [16]),"SETVI (Table B8, pre-emergence herbicidal activity) (SETVI [17])",Pre-emergence action against VIOTR (VIOTR [18]),Post-emergence action against VERPE (VERPE [19]),further results
CCC(=O)c1c(C)ccc(C(=O)Nc2nnnn2CC)c1Cl [2-135],90%,100,90,90%,90%,90,90%,90%,90%,90%,90%,80%,100%,,,,,,,Post-emergence action against CYPES (herbicidal action in percent) (CYPES [8]): 80%
CCn1nnnc1NC(=O)c1ccc(C)c(C(=O)C2CC2)c1Cl [2-136],90%,80,90,100%,,80,90%,,90%,,90%,,100%,90%,100%,,,,,
CCn1nnnc1NC(=O)c1ccc(C(F)(F)F)c(C(=O)C(C)(C)C)c1Cl [2-143],,90,,100%,,,100%,,100%,90%,,,100%,100%,,90%,80%,100%,,Pre-emergence action against POLCO (POLCO): 100%
CCn1nnnc1NC(=O)c1ccc(C(F)(F)F)c(C(=O)c2cc(F)cc(F)c2)c1Cl [2-286],,,90,,80%,80,,90%,,,,80%,100%,80%,80%,,,100%,,
CCCn1nnnc1NC(=O)c1ccc(C)c(C(C)=O)c1C [3-1],100%,90,80,100%,100%,100,90%,90%,,90%,90%,80%,100%,100%,,90%,90%,100%,,Pre-emergence action against POLCO (POLCO): 90%
CCCn1nnnc1NC(=O)c1ccc(C)c(C(=O)C2CC2)c1C [3-3],,80,,100%,100%,,90%,100%,,100%,90%,,100%,80%,,90%,90%,,,
CCCn1nnnc1NC(=O)c1ccc(C(F)(F)F)c(C(=O)CC)c1C [3-15],100%,100,90,100%,100%,90,100%,90%,100%,100%,80%,90%,100%,100%,80%,,100%,100%,90,Post-emergence action against SETVI (herbicidal action in percent) (SETVI [20]): 100%
CCCn1nnnc1NC(=O)c1ccc(C)c(C(=O)C2CC2)c1Cl [3-136],90%,100,90,90%,80%,80,,80%,,80%,,,90%,80%,90%,,,,80,
CCCn1nnnc1NC(=O)c1ccc(C(F)(F)F)c(C(=O)COC)c1Cl [3-144],90%,100,100,100%,80%,80,100%,90%,100%,100%,90%,90%,100%,100%,80%,100%,100%,100%,80,Pre-emergence action against AVEFA (herbicidal activity) (AVEFA): 80%; Post-emergence action against SETVI (herbicidal action in percent) (SETVI [20]): 100%
